Laboratory results from ChEMBL document CHEMBL5584358, “Fungal Coculture of Herpotrichia sp. and Trametes versicolor Induces Production of Diverse Metabolites with Anti-Parkinson's Neuroprotective Activity” (J Nat Prod, 2024).
Calls of active or inactive are those of the source. The calls are words filed in the database; no cut-off is given here.

Columns and labels:
PC-12 [1] = assay: Cytotoxicity against rat PC12 cells assessed as effect on cell viability at 20 uM measured after 24 hrs by CCK-8 assay; type: toxicity, cell-based; conditions: pc-12, 24 h
PC-12 [2] = assay: Neuroprotective activity against MPP+-induced rat PC12 cell death assessed as increase in cell viability preincubated for 1 hr followed by MPP+ addition and measured after 24 hrs by CCK-8 assay; type: functional, cell-based; conditions: dose 1-20 µM, time 25.0 hrs
PC-12 [3] = assay: Neuroprotective activity against MPP+-induced rat PC12 cell death assessed as cell viability at 20 uM preincubated for 1 hr followed by MPP+ addition and measured after 24 hrs by CCK-8 assay (reference value: 57%); type: functional; conditions: time 25 hrs, read-out: Activity
PC-12 [4] = assay: Neuroprotective activity against MPP+-induced rat PC12 cell death assessed as increase in cell viability at […] preincubated for 1 hr followed by MPP+ addition and measured after 24 hrs by CCK-8 assay; type: functional, cell-based; conditions: time 25.0 hrs

| Structure (SMILES) | Activity (PC-12 [1]) | Activity (PC-12 [2]) | viability at 20 µM (PC-12 [3]) | Activity (PC-12 [4]) |
| --- | --- | --- | --- | --- |
| C=CC(C)(O)C(O)CC(O)C(C)(O)CCC=C(C)C (centres undefined) | Non-Toxic | – | – | – |
| COc1cc(=O)oc(C)c1/C=C/CCOC(C)=O | Non-Toxic | – | – | – |
| CCC[C@H](O)c1c(OC)cc(=O)oc1C | Non-Toxic | – | – | – |
| C=C1CC[C@@H](C(C)(C)O)[C@@H]2C[C@H](C)[C@@H](O)C[C@@H]12 | Non-Toxic | Dose-Dependent Effect | 72% | – |
| CC1=C[C@@](C)(O)[C@H](C)O[C@H]1/C(C)=C/C=C/C=C/C=C/[C@@]1(C)C2OC(=O)C1(C)C(=O)C2C (some centres undefined) | Non-Toxic | – | – | – |
| C=CC1(C)CC/C=C(/C)CCC(C(C)(C)O)O1 (centres undefined) [NEROPLOMACROL] | Non-Toxic | Dose-Dependent Effect | 69% | – |
| CC(=O)[C@H]1CC[C@@]2(O)C3=CC(=O)[C@@H]4C[C@H](O)CC[C@]4(C)[C@H]3C[C@@H](O)[C@]12C | Non-Toxic | Dose-Dependent Effect | 72% | – |
| CC(CO)[C@@H]1CC[C@@](C)(O)[C@@H]2CCC(CO)=C[C@H]21 (some centres undefined) | Non-Toxic | Dose-Dependent Effect | 69% | Active |
| CC(=O)[C@H]1CC[C@H]2C3=C[C@H](O)[C@H]4C[C@H](O)CC[C@]4(C)[C@H]3[C@H](O)C[C@]12C | Non-Toxic | Dose-Dependent Effect | 68% | – |
| C=C1CC[C@H]2[C@](C)(CO)CC[C@@H](O)[C@]2(C)[C@H]1CO | Non-Toxic | – | – | – |
| Cc1ccc([C@@H](C)[C@@H](C[C@@H](O)C(C)(C)O)O[C@@H]2OC[C@@H](O)[C@H](O)[C@H]2O)cc1 | Non-Toxic | – | – | – |
| CC/C=C/c1c(OC)cc(=O)oc1CO | Non-Toxic | – | – | – |
| CCC[C@H](O[C@@H]1OC[C@@H](O)[C@H](O)[C@H]1O)c1c(OC)cc(=O)oc1C | Non-Toxic | – | – | – |
| CC1=C[C@](C)(O)[C@H](C)O[C@H]1/C(C)=C/C=C/C=C/C=C/[C@@]1(C)C2OC(=O)C1(C)C(=O)C2C (some centres undefined) | Non-Toxic | – | – | – |
| CC(C)=CC[C@H](O)[C@@](C)(O)[C@@H](O)C/C=C(/C)[C@H](O)CO | Non-Toxic | – | – | – |
| CC(=O)[C@H]1CC[C@H]2C3=CC(=O)[C@H]4C[C@H](O)CC[C@]4(C)[C@H]3[C@H](O)C[C@]12C | Non-Toxic | Dose-Dependent Effect | 69% | – |
